Reference: ChEMBL document CHEMBL2390944, “Discovery and optimization of arylsulfonyl 3-(pyridin-2-yloxy)anilines as novel GPR119 agonists” (Bioorg Med Chem Lett, 2013)

Columns and labels:
in vitro = details: human, liver microsomes
[1] = Metabolic stability in mouse liver microsomes assessed as compound turnover after 30 mins; type: ADME, Microsome; details: read-out: Drug metabolism
in vivo = details: rat, iv, 0.5 mg/kg

metabolised at 0.5 h [1] [%] | SMILES | metabolised at 0.5 h (in vitro) [%] | clearance (in vivo) [mL/min/kg]
100 | Cc1ccc(S(=O)(=O)Nc2cccc(Oc3nc(C)cc(C)c3C#N)c2)cc1 | 72 | –
– | N#Cc1c(C(F)(F)F)cc(C2CC2)nc1Oc1cccc(NS(=O)(=O)c2ccc(Cl)cc2)c1 | 13 | 3.17
